Assay results published in US20250230138A1, “COMPOUNDS HAVING A T-STRUCTURE FORMED BY AT LEAST FOUR CYCLES FOR USE IN THE TREATMENT OF CANCER AND OTHER INDICATIONS” (TheRas, Inc., priority 2022, published 2025).
pIC50: −log10 of the molar value. Like-named read-outs stand apart in the source and are kept apart here.

How the values were obtained:
[1] = molecular target: KRAS-PI3Kα interaction (KRAS-Q25A binding to avi-tagged full length PI3Kα) (Homo sapiens (Human), UniProt P42336); experiment: Disrupting KRAS-PI3Kα interaction by SPR inhibition assay; settings: KRAS-Q25A at 20 μM, 25° C.
Chain of KRAS-PI3Kα interaction (KRAS-Q25A binding to avi-tagged full length PI3Kα) (P42336 whole entry, looked up, stated change not applied): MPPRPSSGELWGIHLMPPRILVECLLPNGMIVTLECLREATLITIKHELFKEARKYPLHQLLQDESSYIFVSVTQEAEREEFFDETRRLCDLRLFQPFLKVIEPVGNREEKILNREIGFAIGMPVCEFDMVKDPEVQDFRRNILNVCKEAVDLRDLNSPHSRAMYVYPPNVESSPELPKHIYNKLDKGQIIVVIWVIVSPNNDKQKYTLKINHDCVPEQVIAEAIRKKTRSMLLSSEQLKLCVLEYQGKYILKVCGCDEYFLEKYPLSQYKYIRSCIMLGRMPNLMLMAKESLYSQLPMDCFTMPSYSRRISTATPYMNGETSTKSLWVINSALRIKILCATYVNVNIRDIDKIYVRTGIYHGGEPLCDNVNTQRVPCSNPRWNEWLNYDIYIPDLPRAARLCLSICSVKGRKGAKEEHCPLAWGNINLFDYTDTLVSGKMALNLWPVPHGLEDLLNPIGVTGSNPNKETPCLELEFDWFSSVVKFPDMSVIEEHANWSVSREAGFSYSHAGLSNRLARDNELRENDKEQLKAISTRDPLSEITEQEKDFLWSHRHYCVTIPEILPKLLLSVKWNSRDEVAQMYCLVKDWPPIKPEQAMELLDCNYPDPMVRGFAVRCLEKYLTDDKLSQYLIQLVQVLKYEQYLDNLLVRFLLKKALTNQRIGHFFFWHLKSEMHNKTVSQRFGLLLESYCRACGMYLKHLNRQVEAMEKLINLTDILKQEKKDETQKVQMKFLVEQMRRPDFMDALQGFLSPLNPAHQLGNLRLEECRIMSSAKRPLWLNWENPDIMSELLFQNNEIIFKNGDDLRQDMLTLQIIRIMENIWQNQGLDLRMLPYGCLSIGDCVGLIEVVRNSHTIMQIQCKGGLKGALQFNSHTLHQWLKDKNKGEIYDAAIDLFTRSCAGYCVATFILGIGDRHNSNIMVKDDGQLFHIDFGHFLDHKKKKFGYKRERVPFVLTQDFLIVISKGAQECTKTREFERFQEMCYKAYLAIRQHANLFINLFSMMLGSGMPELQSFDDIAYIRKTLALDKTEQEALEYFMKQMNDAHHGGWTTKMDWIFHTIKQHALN
Chain of KRAS-PI3Kα interaction (KRAS-Q25A binding to avi-tagged full length PI3Kα) (P27986 whole entry partner, looked up): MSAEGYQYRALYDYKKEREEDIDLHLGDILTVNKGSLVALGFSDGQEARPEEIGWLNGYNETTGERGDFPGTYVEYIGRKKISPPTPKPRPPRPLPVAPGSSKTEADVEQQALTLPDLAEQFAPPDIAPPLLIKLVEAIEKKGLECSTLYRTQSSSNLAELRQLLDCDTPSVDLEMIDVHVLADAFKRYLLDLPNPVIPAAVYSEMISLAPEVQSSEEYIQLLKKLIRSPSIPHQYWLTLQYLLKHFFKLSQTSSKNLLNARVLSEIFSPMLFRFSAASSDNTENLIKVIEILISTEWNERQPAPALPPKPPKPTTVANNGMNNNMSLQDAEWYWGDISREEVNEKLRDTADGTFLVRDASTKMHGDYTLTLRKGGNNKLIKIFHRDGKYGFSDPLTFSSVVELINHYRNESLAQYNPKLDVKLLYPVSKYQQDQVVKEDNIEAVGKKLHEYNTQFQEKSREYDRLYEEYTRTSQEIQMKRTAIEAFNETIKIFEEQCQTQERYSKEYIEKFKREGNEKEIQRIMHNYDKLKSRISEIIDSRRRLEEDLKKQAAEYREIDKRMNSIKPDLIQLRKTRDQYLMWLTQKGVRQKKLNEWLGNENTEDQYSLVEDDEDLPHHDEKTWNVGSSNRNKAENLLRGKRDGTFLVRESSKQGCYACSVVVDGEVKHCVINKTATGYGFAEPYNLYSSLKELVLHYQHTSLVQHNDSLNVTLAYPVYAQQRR
Protocol: SPR binding experiments were collected on a Biacore 8K Instrument (Cytiva). Neutravidin (Pierce) was amine coupled to the carboxymethylated dextran surface of a CM5 sensor chip (Cytiva) using standard amine coupling chemistry. The CM5 chip surface was first activated with 0.1 M N-hydroxy succinimide and 0.4 M N-ethyl-N′-(3-dimethyl aminopropyl) carbodiimide at a flow rate of 20 μL/min using 20 mM HEPES pH 7.4, 150 mM NaCl as the running buffer. Next, neutravidin was diluted to 20 μg/mL in 10 mM sodium acetate (pH 4.5) and injected on all flow cells until a density of approximately 10,000 response units (RU) was immobilized. Activated amine groups were quenched with an injection of 1 M ethanolamine (pH 8.0). 300-500 RU of avi-tagged full length PI3Kα was captured on all flow cells in 20 mM HEPES pH 7.4, 150 mM NaCl, 5 mM MgCl2, 1 mM TCEP, 0.05% tween 20, 5% DMSO buffer. KRAS-Q25A at 20 μM was mixed with 8 concentrations of compound (50 nM-100 μM) and injected over the full-length PI3Kα at 30 μL/min and 25° C. Steady-state levels of KRAS binding were recorded and fit with a 4-parameter inhibition model to determine the IC50 values.

[2] = molecular target: Cys242 in human PIK3CA (157-299) (Homo sapiens (Human), UniProt P42336); experiment: Covalent modification assay using MALDI-TOF MS; assay type: biochemical; settings: 4 h reaction time point
Chain of Cys242 in human PIK3CA (157-299) (P42336 157-299): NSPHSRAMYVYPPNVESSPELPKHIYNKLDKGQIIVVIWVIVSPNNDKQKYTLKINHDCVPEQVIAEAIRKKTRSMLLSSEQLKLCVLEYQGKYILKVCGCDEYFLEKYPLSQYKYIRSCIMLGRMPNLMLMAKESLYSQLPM
Outline: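 Covalent adduct formation was read by linear-mode MALDI-TOF with sinapinic acid matrix, reported as modified-protein peak height divided by total protein peak heights. Reactions held PIK3CA (157-299) at 1 or 3.33 μM in HEPES/NaCl/MgCl2 buffer, pH 7.3, sampled after 15 min to 4 h at room temperature.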

pAKT in BT474 cells = experiment: Cell-based pAKT HTRF assay in BT474 cells; settings: BT474 cells, 4 hr incubation, read-out: pAKT inhibition IC50 in BT474 cells
Outline: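 Compound titration: 3 μM downward in 3-fold steps, nine points, 4 hr on cells. Detection: lysis, then d2 plus Eu Cryptate antibody mix, room-temperature incubation of 4–24 h, and time-resolved fluorescence read at 615 nm.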

[3] = 3.33 μM protein target, 1:7.5 protein to compound ratio (compounds 1-852)
[4] = 1 μM protein target, 1:5 protein to compound ratio (compounds 853-1279)

## COCCOc1ccccc1-c1c(-c2ccccc2)nc(-c2ccc3c(c2)CCNC3)c2c1CCC2 [compound 3]
[1]
  pIC50: < 4.60

## C=CC(=O)n1cnc(-c2nc(-c3ccc4c(c3)CCNC4)c3ccsc3c2-c2ccc(F)cc2OCCOC)c1 [compound 35]
[1]
  pIC50: 4.60 to 5.30
[2]; [3]
  % of modification: D (percent of modification <25%)

## COCCOc1cc(F)ccc1-c1c(-c2c[nH]cn2)nc(-c2ccc3c(c2)CCNC3)c2ccsc12 [compound 34]
[1]
  pIC50: 4.60 to 5.30

## C=CC(=O)Nc1cccc(-c2nc(-c3ccc4c(c3)CCC(O)C4)c3ccsc3c2-c2ccc(F)cc2OCCOC)c1 (stereo not shown) [compound 57]
[1]
  pIC50: < 4.60
[2]; [3]
  % of modification: B (50%<percent of modification <75%)

## COCCOc1cc(F)ccc1-c1c(-c2ccc(=O)n(C(C)C)c2)nc(-c2ccc3c(c2)CCNC3)c2ccsc12 [compound 26]
[1]
  pIC50: > 5.30

## C=CC(=O)N1CCC(n2cc(-c3nc(-c4ccc5c(c4)CCNC5)c4ccsc4c3-c3ccc(F)cc3OCCOC)cn2)C1 (stereo not shown) [compound 28]
[1]
  pIC50: 4.60 to 5.30
[2]; [3]
  % of modification: A (percent of modification of PIK3CA protein ≥75%)
pAKT in BT474 cells; Compounds 10-999
  pIC50: > 7.00

## COCCOc1cc(F)ccc1-c1c(-c2cccc(CNC(=O)C3CCCC3)c2)nc(-c2ccc3c(c2)CCNC3)c2ccsc12 [compound 27]
[1]
  pIC50: > 5.30

## C=CC(=O)NCc1csc(-c2nc(-c3ccc4c(c3)CCNC4)c3ccsc3c2-c2ccc(F)cc2OCCOC)n1 [compound 38]
[1]
  pIC50: 4.60 to 5.30
[2]; [3]
  % of modification: B (50%<percent of modification <75%)

## C=CC(=O)Nc1ccc2nc(-c3nc(-c4ccc5c(c4)CCNC5)c4ccsc4c3-c3ccc(F)cc3OCCOC)[nH]c2c1 [Compound 23, N-[2-[7-[4-fluoro-2-(2-methoxyethoxy)phenyl]-4-(1,2,3,4-tetrahydroisoquinolin-6-yl)thieno[3,2-c]pyridin-6-yl]-3H-benzimidazol-5-yl]prop-2-enamide]
[1]
  pIC50: < 4.60
[2]; [3]
  % of modification: A (percent of modification of PIK3CA protein ≥75%)
pAKT in BT474 cells; Homo sapiens, BT-474, Compounds 10-999
  pIC50: 5.52 to 6.00

## C=CC(=O)Nc1cccc(-c2nc(-c3cnn(C)c3)c3ccsc3c2-c2ccc(F)cc2OCCOC)c1 [compound 52]
[1]
  pIC50: 4.60 to 5.30
[2]; [3]
  % of modification: A (percent of modification of PIK3CA protein ≥75%)
pAKT in BT474 cells; Compounds 10-999
  pIC50: 6.00 to 7.00

## C=CC(=O)N1CCC(n2cc(-c3nc(-c4cnn(C)c4)c4ccsc4c3-c3ccc(F)cc3OCCOC)cn2)CC1 [compound 49]
[1]
  pIC50: < 4.60
[2]; [3]
  % of modification: A (percent of modification of PIK3CA protein ≥75%)
pAKT in BT474 cells; Compounds 10-999
  pIC50: 6.00 to 7.00

## C=CC(=O)N1CCC(n2cc(-c3nc(-c4ccc5c(c4)CNC(=O)C5)c4ccsc4c3-c3ccc(F)cc3OCCOC)cn2)CC1 [compound 50]
[1]
  pIC50: 4.60 to 5.30
[2]; [3]
  % of modification: A (percent of modification of PIK3CA protein ≥75%)
pAKT in BT474 cells; Compounds 10-999
  pIC50: > 7.00

## COCCOc1ccccc1-c1c(-c2ccc(=O)n(C)c2)nc(-c2ccc3c(c2)CCNC3)c2c1CCC2 [compound 5]
[1]
  pIC50: < 4.60

## C=CC(=O)NC1CC(n2cc(-c3nc(-c4ccc5c(c4)CCNC5)c4ccsc4c3-c3ccc(F)cc3OCCOC)cn2)C1 (stereo not shown) [compound 60]
[1]
  pIC50: 4.60 to 5.30
[2]; [3]
  % of modification: A (percent of modification of PIK3CA protein ≥75%)
pAKT in BT474 cells; Compounds 10-999
  pIC50: 6.00 to 7.00

## COCCOc1cc(F)ccc1-c1c(-c2nc(CO)cs2)nc(-c2ccc3c(c2)CCNC3)c2ccsc12 [compound 39]
[1]
  pIC50: 4.60 to 5.30

## C=CC(=O)NC1CC(n2cc(-c3nc(-c4ccc5c(c4)CCNC5)c4ccsc4c3-c3ccc(F)cc3OCCOC)cn2)C1 (stereo not shown) [compound 55]
[1]
  pIC50: 4.60 to 5.30
[2]; [3]
  % of modification: A (percent of modification of PIK3CA protein ≥75%)
pAKT in BT474 cells; Compounds 10-999
  pIC50: 6.00 to 7.00

## COCCOc1ccccc1-c1c(-c2cccc(C#N)c2)nc(-c2ccc3c(c2)CCNC3)c2c1CCC2 [compound 2]
[1]
  pIC50: < 4.60

## COCCOc1cc(F)ccc1-c1c(-c2cnn(CC(=O)NC(C)(C)C)c2)nc(-c2ccc3c(c2)CCNC3)c2ccsc12 [compound 24]
[1]
  pIC50: > 5.30

## COCCOc1cc(F)ccc1-c1c(-c2cnn(CCC(=O)NC(C)(C)C)c2)nc(-c2ccc3c(c2)CCNC3=O)c2ccsc12 [compound 37]
[1]
  pIC50: 4.60 to 5.30

## C=CC(=O)N1CC[C@H](n2cc(-c3nc(-c4ccc5c(c4)CCNC5)c4ccsc4c3-c3ccc(F)cc3OCCOC)c(C)n2)C1 [compound 59]
[1]
  pIC50: > 5.30
[2]; [3]
  % of modification: A (percent of modification of PIK3CA protein ≥75%)
pAKT in BT474 cells; Compounds 10-999
  pIC50: > 7.00

## COCCOc1ccccc1-c1c(-c2ccccc2)nc(-c2ccc3c(c2)CCNC3)c2ccsc12 [Compound 4, 7-[2-(2-methoxyethoxy)phenyl]-6-phenyl-4-(1,2,3,4-tetrahydroisoquinolin-6-yl)thieno[3,2-c]pyridine]
[1]
  pIC50: 4.60 to 5.30

## COCCOc1cc(F)ccc1-c1c(-c2cnn(CC(=O)N3CCCC3)c2)nc(-c2ccc3c(c2)CCNC3)c2ccsc12 [compound 25]
[1]
  pIC50: 4.60 to 5.30

## C=CC(=O)NCCn1cc(-c2nc(-c3ccc4c(c3)CCNC4)c3ccsc3c2-c2ccc(F)cc2OCCOC)cn1 [compound 22]
[1]
  pIC50: 4.60 to 5.30
[2]; [3]
  % of modification: B (50%<percent of modification <75%)

## COCCOc1cc(F)ccc1-c1c(-c2ccc3c(c2)CCN(C)C3)nc(-c2ccc3c(c2)CCNC3)c2ccsc12 [compound 229]
[1]
  pIC50: > 5.30
pAKT in BT474 cells; Compounds 10-999
  pIC50: < 5.52

## COCCOc1cc(F)ccc1-c1c(-c2ccc3cc[nH]c3c2)nc(-c2ccc3c(c2)CCNC3)c2ccsc12 [compound 45]
[1]
  pIC50: 4.60 to 5.30

## COCCOc1cc(F)ccc1-c1c(-c2cnn(CCNC(=O)C(C)C)c2)nc(-c2ccc3c(c2)CCNC3)c2ccsc12 [compound 21]
[1]
  pIC50: 4.60 to 5.30

## COCCOc1cc(F)ccc1-c1c(-c2cnn(C3CCN(C(=O)/C=C/CN(C)C)C3)c2)nc(-c2ccc3c(c2)CCNC3)c2ccsc12 (stereo not shown) [compound 56]
[1]
  pIC50: 4.60 to 5.30
[2]; [3]
  % of modification: B (50%<percent of modification <75%)

## COCCOc1cc(F)ccc1-c1c(-c2nc3ccc(C(C)C)cc3[nH]2)nc(-c2ccc3c(c2)CCNC3)c2ccsc12 [compound 20]
[1]
  pIC50: < 4.60

## C=C(F)C(=O)N1CCn2nc(-c3nc(-c4cnc5c(c4)CN(C)CC5)c4ccsc4c3-c3ccc(F)cc3OC(C)C)cc2C1 [Compound 306]
[2]; [3]
  % of modification: B (50%<percent of modification <75%)
pAKT in BT474 cells; Compounds 10-999
  pIC50: > 7.00

## C=CC(=O)N1CCc2ncc(-c3nc(-c4cncc(C#N)c4)c4ccsc4c3-c3c(F)cc(F)cc3OCCOC)cc2C1 [Compound 376]
[2]; [3]
  % of modification: A (percent of modification of PIK3CA protein ≥75%)
pAKT in BT474 cells; Compounds 10-999
  pIC50: > 7.00

## C=C(F)C(=O)N1CCn2nc(-c3nc(-c4ccc5c(c4)CCN(C(C)C)C5)c4ccsc4c3-c3ccc(F)cc3OC(C)C)cc2C1 [Compound 294]
[2]; [3]
  % of modification: A (percent of modification of PIK3CA protein ≥75%)
pAKT in BT474 cells; Compounds 10-999
  pIC50: > 7.00

## C=CC(=O)N1CCc2ccc(-c3nc(-c4ccc5c(c4)CNC(=O)C5)c4ccsc4c3-c3c(F)cc(F)cc3OCCOC)cc2C1 [Compound 1108]
[2]; [4]
  % of modification: A (percent of modification of PIK3CA protein ≥75%)
pAKT in BT474 cells; Compounds 1000-1279
  pIC50: > 7.00

## C=CC(=O)N1Cc2cc(-c3nc(-c4ccc5c(c4)CNC(=O)C5)c4ccsc4c3-c3c(F)cc(F)cc3OCCO)nn2CC1C (stereo not shown) [Compound 927]
[2]; [4]
  % of modification: A (percent of modification of PIK3CA protein ≥75%)
pAKT in BT474 cells; Compounds 10-999
  pIC50: > 7.00

## C=CC(=O)N1Cc2cc(-c3nc(-c4ccc5c(c4)NC(=O)C5)c4ccsc4c3-c3c(F)cc(F)cc3OCCOC)nn2C[C@H]1C [Compound 779]
[2]; [3]
  % of modification: A (percent of modification of PIK3CA protein ≥75%)
pAKT in BT474 cells; Compounds 10-999
  pIC50: > 7.00

## C=C(F)C(=O)N1CCn2nc(-c3nc(-c4ccc(=O)n(C)c4)c4ccsc4c3-c3ccc(F)cc3OC(C)C)cc2C1 [Compound 276]
[2]; [3]
  % of modification: A (percent of modification of PIK3CA protein ≥75%)
pAKT in BT474 cells; Compounds 10-999
  pIC50: 6.00 to 7.00

## C=CC(=O)N1CCn2nc(-c3nc(-c4ccc5c(cnn5C)c4)c4ccsc4c3-c3c(F)cc(F)cc3OCCOC)cc2[C@H]1C [Compound 1131]
[2]; [4]
  % of modification: D (percent of modification <25%)
pAKT in BT474 cells; Compounds 1000-1279
  pIC50: < 6.00

## C=CC(=O)N1CCn2nc(-c3nc(-c4ccc5c(c4)CN(C)C(=O)C54CC4)c4ccsc4c3-c3c(F)cc(F)cc3OCCO)cc2[C@H]1C [Compound 1133]
[2]; [4]
  % of modification: A (percent of modification of PIK3CA protein ≥75%)
pAKT in BT474 cells; Compounds 1000-1279
  pIC50: > 7.00

## C=CC(=O)N1Cc2cc(-c3nc(-c4ccc5c(c4)CCN(C)C5)c4ccsc4c3-c3c(F)cc(F)cc3OC)nn2C(C)C1 (stereo not shown) [Compound 484]
[2]; [3]
  % of modification: A (percent of modification of PIK3CA protein ≥75%)
pAKT in BT474 cells; Compounds 10-999
  pIC50: > 7.00
